# In article doi:10.1101/2024.06.25.600598v1 (biorxiv, 2024):
# pKi: −log10 of the molar value. Where a name gives a salt, the structure may show the parent alone. Numbered stars: 1 amine (or outer) side, 2 acyl side, 3 side chain; on linkers, the order of the positions; unused ones are H or OH. Bridge positions count the residues as written; N and C are the ends. Square brackets hold non-standard residues; d marks the D form. Side chains are listed from the residue outwards. Peptide text beside a SMILES is read from it. * marks the point of attachment. Ethylenediamine = C(CN[*:2])N[*:1]; Hyp = O=C(O)[C@@H]1C[C@@H](O)CN1; hArg = N=C(N)NCCCC[C@H](N)C(=O)O; Phg = N[C@H](C(=O)O)c1ccccc1; CO = O=C([*:1])[*:2]; Bn = c1ccc(C*)cc1; Mpa = O=C(O)CCS
# Target: T1, fibroblast activation protein (FAP; rhFAP, SLIN-tagged hFAP) (Homo sapiens, UniProt Q12884)
# T1 sequence (Q12884 35-760): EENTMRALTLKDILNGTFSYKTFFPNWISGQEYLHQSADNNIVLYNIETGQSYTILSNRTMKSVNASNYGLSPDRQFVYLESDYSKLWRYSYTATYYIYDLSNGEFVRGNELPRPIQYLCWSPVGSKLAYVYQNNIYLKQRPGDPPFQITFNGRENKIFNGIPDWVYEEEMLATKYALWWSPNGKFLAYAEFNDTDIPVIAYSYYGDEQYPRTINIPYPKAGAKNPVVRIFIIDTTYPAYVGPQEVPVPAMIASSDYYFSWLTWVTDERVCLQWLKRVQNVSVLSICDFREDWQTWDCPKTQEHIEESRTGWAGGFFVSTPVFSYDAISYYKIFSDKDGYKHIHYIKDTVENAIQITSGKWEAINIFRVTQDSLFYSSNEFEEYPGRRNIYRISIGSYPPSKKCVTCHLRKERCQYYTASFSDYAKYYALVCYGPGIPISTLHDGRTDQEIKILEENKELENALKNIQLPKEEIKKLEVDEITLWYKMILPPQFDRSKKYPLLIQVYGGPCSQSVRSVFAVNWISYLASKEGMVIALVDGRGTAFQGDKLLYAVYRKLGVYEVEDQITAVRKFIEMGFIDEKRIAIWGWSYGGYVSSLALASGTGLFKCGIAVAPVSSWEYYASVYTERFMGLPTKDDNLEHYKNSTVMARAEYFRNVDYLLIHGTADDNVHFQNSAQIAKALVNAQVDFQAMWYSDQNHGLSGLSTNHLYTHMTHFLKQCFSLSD
# Assay: biochemical
# Settings: not given
row,Structure (SMILES),pKi
1,CCOc1nc2cccc(C(=O)OCc3oc(=O)oc3C)c2n1Cc1ccc(-c2ccccc2-c2noc(=O)[nH]2)cc1 [Azilsartan medoxomil],5.41
2,CCN1CCN(C(=O)N[C@@H](C(=O)N[C@@H]2C(=O)N3C(C(=O)O)=C(CSc4nnnn4C)CS[C@H]23)c2ccc(O)cc2)C(=O)C1=O [Cefoperazone (sodium salt)],5.41
3,CC(=O)[C@]1(O)Cc2c(O)c3c(c(O)c2[C@@H](O[C@H]2C[C@H](N)[C@H](O)[C@H](C)O2)C1)C(=O)c1ccccc1C3=O [Idarubicin (hydrochloride)],5.44

# Target: T1, fibroblast activation protein (FAP; rhFAP, SLIN-tagged hFAP)
# Assay: biochemical
# Settings: not given
# Remark: another data set of the same source
row,Structure (SMILES),pKi
1,Cn1c(CCCC(=O)O)nc2cc(N(CCCl)CCCl)ccc21 [Bendamustine],4.60
2,Cc1c(-c2ccccc2)oc2c(C(=O)OCCN3CCCCC3)cccc2c1=O [Flavoxate (hydrochloride)],4.47
3,C=CCN1C[C@H](C(=O)N(CCCN(C)C)C(=O)NCC)C[C@@H]2c3cccc4[nH]cc(c34)C[C@H]21 [Cabergoline],4.76
4,CCOC(=O)[C@@](C)(N)Cc1ccc(O)c(O)c1 [Methyldopate],4.53
5,CC(C)C[C@H](NC(=O)CNC(=O)c1cc(Cl)ccc1Cl)B(O)O [Ixazomib],4.48
6,CCCc1nc(C)c2c(=O)[nH]c(-c3cc(S(=O)(=O)N4CCN(CC)CC4)ccc3OCC)nn12 [Vardenafil (hydrochloride)],4.40
7,CC(C)=CCOc1ccc(/C=C/C(=O)c2ccc(OCC=C(C)C)cc2OCC(=O)O)cc1 [Sofalcone],4.80
8,CC/C=C\C/C=C\C/C=C\C/C=C\C/C=C\CCCC(=O)O [Eicosapentaenoic Acid],4.80
9,CC(C)(O/N=C(\C(=O)N[C@@H]1C(=O)N2C(C(=O)[O-])=C(C[n+]3ccccc3)CS[C@H]12)c1csc(N)n1)C(=O)O [Ceftazidime (pentahydrate)],4.68
10,CC(=O)O[C@H]1C[C@@H]2CC[C@@H]3[C@H](CC[C@@]4(C)[C@H]3C[C@H]([N+]3(C)CCCCC3)[C@@H]4OC(C)=O)[C@@]2(C)C[C@@H]1N1CCCCC1 [Vecuronium (bromide)],4.59
11,Cc1ccc(NC(=O)C2(c3ccc4c(c3)OC(F)(F)O4)CC2)nc1-c1cccc(C(=O)O)c1 [Lumacaftor],5.00
12,COc1cc(C(=O)NS(=O)(=O)c2ccccc2C)ccc1Cc1cn(C)c2ccc(NC(=O)OC3CCCC3)cc12 [Zafirlukast],4.87
13,CN(C)c1ccc2nc3ccc(=[N+](C)C)cc-3sc2c1 [Methylene blue (trihydrate)],4.72
14,CCCC[C@H](NC(C)=O)C(=O)N[C@H]1CC(=O)NCCCC[C@@H](C(=O)O)NC(=O)[C@H](Cc2c[nH]c3ccccc23)NC(=O)[C@H](CCCN=C(N)N)NC(=O)[C@@H](Cc2ccccc2)NC(=O)[C@H](Cc2cnc[nH]2)NC1=O [Bremelanotide (Acetate)],4.60
15,CC[C@@H]1C(=O)N(C)c2cnc(Nc3ccc(C(=O)N[C@H]4CC[C@H](N5CCN(CC6CC6)CC5)CC4)cc3OC)nc2N1C(C)C [Volasertib],4.96
16,CNCc1ccc(-c2[nH]c3cc(F)cc4c3c2CCNC4=O)cc1 [Rucaparib],4.35
17,NC(=O)c1cc[n+](CC2=C(C(=O)O)N3C(=O)[C@@H](NC(=O)[C@@H](c4ccccc4)S(=O)(=O)[O-])[C@H]3SC2)cc1 [Cefsulodin (sodium)],4.38
18,CO/N=C(\C(=O)N[C@@H]1C(=O)N2C(C(=O)O)=C(CSc3nnnn3C)CS[C@H]12)c1csc(N)n1 [Cefmenoxime (hydrochloride)],4.60
19,CCC(=O)O[C@@H](O[P@](=O)(CCCCc1ccccc1)CC(=O)N1C[C@H](C2CCCCC2)C[C@H]1C(=O)O)C(C)C [Fosinopril (sodium)],4.94
20,COc1cc(NCc2ccc3nc(N)nc(N)c3c2C)cc(OC)c1OC [Trimetrexate],4.57
21,CO/N=C(\C(=O)N[C@@H]1C(=O)N2C(C(=O)O)=C(CSC(=O)c3ccco3)CS[C@H]12)c1csc(N)n1 [Ceftiofur (sodium)],4.64
22,Cc1ncc(NC(=O)c2ccc(CN3CCN(C)CC3)c(C(F)(F)F)c2)cc1Nc1nccc(-c2cccnc2)n1 [Flumatinib (mesylate)],4.91
23,Nc1c2ccccc2nc2ccccc12 [9-Aminoacridine],4.91
24,Cc1oc(=O)oc1COC(=O)C1=C([C@H]2CCCO2)S[C@@H]2[C@@H]([C@@H](C)O)C(=O)N12 [Faropenem daloxate],4.88
25,COc1cc(C)c2c(Oc3cccc(C(F)(F)F)c3)c(OC)cc(NC(C)CCCN)c2n1 (centres unmarked) [Tafenoquine (Succinate)],4.79

row,Structure (SMILES),pKi
1,Cc1nnc(SCC2=C(C(=O)O)N3C(=O)[C@@H](NC(=O)Cn4cc(Cl)c(=O)c(Cl)c4)[C@H]3SC2)s1 [Cefazedone],4.59
2,CC(C)C[C@H](NC(=O)CNC(=O)c1cc(Cl)ccc1Cl)B1OC(=O)C(CC(=O)O)(CC(=O)O)O1 [Ixazomib citrate],4.60
3,Cc1ccc(NC(=O)c2ccc(CN3CCN(C)CC3)cc2)cc1Nc1nc(-c2cccnc2)cs1 [Masitinib],4.36
4,NCCCC[C@@H]1NC(=O)[C@@H](Cc2c[nH]c3ccccc23)NC(=O)[C@H](c2ccccc2)NC(=O)[C@@H]2C[C@@H](OC(=O)NCCN)CN2C(=O)[C@H](Cc2ccccc2)NC(=O)[C@H](Cc2ccc(OCc3ccccc3)cc2)NC1=O [Pasireotide (acetate)] (cyclo([Hyp]([CO-Ethylenediamine])[Phg][dW]KY(Bn)F)),4.70
5,O=c1cc(-c2ccccc2)oc2cc(O)c(O)c(O)c12 [Baicalein],4.43
6,COc1ccc(C(=O)N2CCCC2=O)cc1 [Aniracetam],4.39
7,CN1Cc2c(Cl)cc(Cl)cc2[C@H](c2cccc(S(=O)(=O)NCCOCCOCCNC(=O)NCCCCNC(=O)NCCOCCOCCNS(=O)(=O)c3cccc([C@@H]4CN(C)Cc5c(Cl)cc(Cl)cc54)c3)c2)C1 [Tenapanor],4.60
8,CCCCc1nc(C)c(CC(=S)N(C)C)c(=O)n1Cc1ccc(-c2ccccc2-c2nnn[nH]2)cc1 [Fimasartan],4.84
9,CC[N+](C)(C)c1cccc(O)c1 [Edrophonium (chloride)],4.45
10,CCOC(=O)OC(C)OC(=O)[C@@H]1N2C(=O)[C@@H](NC(=O)[C@H](N)c3ccccc3)[C@H]2SC1(C)C (some centres unmarked) [Bacampicillin (hydrochloride)],4.90
11,NC(=NCc1ccccc1)NC(=O)c1nc(Cl)c(N)nc1N [Benzamil (hydrochloride)],4.45
12,NC(=O)c1cccc2cn(-c3ccc([C@@H]4CCCNC4)cc3)nc12 [Niraparib (tosylate)],4.79
13,CO[C@H]1/C=C/O[C@@]2(C)Oc3c(C)c(O)c4c(O)c(c(/C=N/N5CCN(C6CCCC6)CC5)c(O)c4c3C2=O)NC(=O)/C(C)=C\C=C\[C@H](C)[C@H](O)[C@@H](C)[C@@H](O)[C@@H](C)[C@H](OC(C)=O)[C@@H]1C [Rifapentine],4.92
14,C=CC[N+]1([C@H]2C[C@H]3[C@@H]4CC[C@H]5C[C@H](OC(C)=O)[C@@H](N6CCCCC6)C[C@]5(C)[C@H]4CC[C@]3(C)[C@H]2OC(=O)CC)CCCCC1 [Rapacuronium bromide],4.85
15,COCC1=C(C(=O)OC(C)OC(=O)OC(C)C)N2C(=O)[C@@H](NC(=O)/C(=N\OC)c3csc(N)n3)[C@H]2SC1 (some centres unmarked) [Cefpodoxime Proxetil],4.46
16,Nc1ccc2cc3ccc(N)cc3nc2c1 [Proflavine (hemisulfate)],4.57
17,CC(=O)OCC1=C(C(=O)O)N2C(=O)[C@@H](NC(=O)CSC(=NC(C)C)NC(C)C)[C@H]2SC1 [Cefathiamidine],4.63
18,O=NN(CCCl)C(=O)NCCCl [Carmustine],4.77
19,CC1(C)S[C@@H]2[C@H](NC(=O)C(C(=O)Oc3ccc4c(c3)CCC4)c3ccccc3)C(=O)N2[C@H]1C(=O)O (some centres unmarked) [Carindacillin (sodium)],4.84
20,N=C(N)NCCCC[C@@H]1NC(=O)CCSSC[C@@H](C(N)=O)NC(=O)[C@@H]2CCCN2C(=O)[C@H](Cc2c[nH]c3ccccc23)NC(=O)[C@H](CC(=O)O)NC(=O)CNC1=O [Eptifibatide] ([Mpa][hArg]GDWPC-NH2; disulfide 1-7),4.56
21,CC(C)(C)OC(=O)N[C@H]1CCCCC/C=C\[C@@H]2C[C@@]2(C(=O)NS(=O)(=O)C2CC2)NC(=O)[C@@H]2C[C@@H](OC(=O)N3Cc4cccc(F)c4C3)CN2C1=O [Danoprevir],4.71
22,NCc1ccccc1CC(=O)N[C@@H]1C(=O)N2C(C(=O)O)=C(CSc3nnnn3CC(=O)O)CS[C@H]12 [Ceforanide],4.97
23,O=C1c2c(O)ccc(O)c2C(=O)c2c(NCCNCCO)ccc(NCCNCCO)c21 [Mitoxantrone (dihydrochloride)],4.94
24,CCOc1ccc2nc3cc(N)ccc3c(N)c2c1 [Ethacridine (lactate monohydrate)],4.84
25,COC(=O)c1ccc2c(c1)NC(=O)/C2=C(\Nc1ccc(N(C)C(=O)CN2CCN(C)CC2)cc1)c1ccccc1 [Nintedanib esylate],4.56

# Target: T1, fibroblast activation protein (FAP; rhFAP, SLIN-tagged hFAP)
# Assay: not given
# Settings: 2 µM; inhibitor
row,Structure (SMILES),"Relative inhibition (%), activity assay"
1,CCOc1nc2cccc(C(=O)OCc3oc(=O)oc3C)c2n1Cc1ccc(-c2ccccc2-c2noc(=O)[nH]2)cc1 [Azilsartan medoxomil],11%
2,CCN1CCN(C(=O)N[C@@H](C(=O)N[C@@H]2C(=O)N3C(C(=O)O)=C(CSc4nnnn4C)CS[C@H]23)c2ccc(O)cc2)C(=O)C1=O [Cefoperazone (sodium salt)],25%
3,CC(=O)[C@]1(O)Cc2c(O)c3c(c(O)c2[C@@H](O[C@H]2C[C@H](N)[C@H](O)[C@H](C)O2)C1)C(=O)c1ccccc1C3=O [Idarubicin (hydrochloride)],19%
